In PubChem BioAssay (NCI) one finds GI50 and TGI data, which are given here for eight molecules.

What all share (assay): NCI-60 cell line screen, 48 h
For assay [1], the system named is EKVX NSCLC.
The subject of assay [2] is SNB-75 CNS.
In assay [3] the test system is HCT-116 colon.
For assay [4], the system named is HCC-2998 colon.
Assay [5] relates to BT-549 breast.
For assay [6], the system named is MDA-MB-231 breast.
In assay [7] the test system is OVCAR-8 ovarian.
The test system of assay [8] is OVCAR-3 ovarian.

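48-hour exposure; five concentrations; linearly interpolated endpoints. Abbreviation: GI50, concentration required for 50% inhibition of growth. Definition used: TGI = concentration required for complete inhibition of growth.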

Regarding `CCCCCCCCCCC(C(O)c1ccccc1)N1CCCCC1` (centres undefined), the GI50 in assay [1] was 2.09 µM; in assay [2] it was 2.32 µM; in assay [3], 1.62 µM; in assay [4] it was 1.61 µM; in assay [5], 4.57 µM; in assay [6] it was 1.76 µM. The GI50 was 3.29 µM in assay [7] and 1.11 µM in assay [8]. For the same molecule, the TGI is 6.08 µM in assay [1]; 5.65 µM in assay [2]; 3.01 µM in assay [3]; 3.07 µM in assay [4]; 16.5 µM in assay [5]; 3.69 µM in assay [6]. For the same molecule, the TGI in assay [7] was 13 µM; in assay [8] it was 2.57 µM.

On to `COC(=O)CCC1CCC(c2cc(F)ccc2F)(S(=O)(=O)c2ccc(Cl)cc2)CC1` (centres undefined), for which the GI50 is 61.2 µM in assay [1]; greater than 100 µM in assay [2]; 38.2 µM in assay [3]; greater than 100 µM in assay [4]; 70.6 µM in assay [5]; greater than 100 µM in assay [6]. Besides, the GI50 in assay [7] was greater than 100 µM; in assay [8], 83.7 µM. Further, the TGI in assay [1], in assay [2], in assay [3], in assay [4], in assay [5] and in assay [6] was greater than 100 µM each time. For the same molecule, the TGI in assay [7] and in assay [8] was greater than 100 µM in each case.

Turning to `COc1ccc(/C=C(\C#N)n2nnc3ccccc32)cc1`, the GI50 in assay [1] is 0.431 µM; in assay [2] it was 0.0327 µM; in assay [3], 0.0955 µM; in assay [4], 0.458 µM; in assay [5] it was 1.11 µM; in assay [6] it was 0.525 µM. For the same molecule, the GI50 was 0.416 µM in assay [7] and 0.046 µM in assay [8]. For the same molecule, the TGI in assay [1] is greater than 100 µM; in assay [2], 0.337 µM; in assay [3], 2.15 µM; in assay [4], 7.11 µM; in assay [5] it was 17.1 µM; in assay [6], 3.47 µM. Besides, the TGI in assay [7] was greater than 100 µM.

Consider `O=C(Nc1ccc2[nH]c(=S)sc2c1)Nc1ccccc1F`, for which the GI50 in assay [1] is 22.3 µM; in assay [2], 22.9 µM; in assay [3], 37.7 µM; in assay [4], 30.6 µM; in assay [5], 32 µM; in assay [6], 23.1 µM. The GI50 in assay [7] was 56.5 µM; in assay [8] it was 34.8 µM. The TGI in assay [1], in assay [2], in assay [3], in assay [4], in assay [5] and in assay [6] was greater than 100 µM in each case. Besides, the TGI in assay [7] and in assay [8] was greater than 100 µM each time.

As to `C=C(C)[C@@H]1CC[C@]2(C)[C@H](CC=C3[C@@H]4[C@@H](C)[C@H](C)CC[C@]4(C(N)=O)CC[C@]32C)[C@@]1(C)CCC#N`, the GI50 in assay [1] was 5.22 µM; in assay [2], 3.57 µM; in assay [3] it was 15.6 µM; in assay [4] it was 4.8 µM; in assay [5], 4.4 µM; in assay [6] it was 8.75 µM. Besides, the GI50 in assay [7] was 5.38 µM; in assay [8] it was 3.45 µM. The TGI in assay [1] is greater than 100 µM; in assay [2], greater than 100 µM; in assay [3], 29.9 µM; in assay [4], 18.8 µM; in assay [5], 18 µM; in assay [6] it was 42.8 µM. The TGI is 27.5 µM in assay [7] and 10.7 µM in assay [8].

For the molecule `CC(C)c1c(O)ccc2c1CCC1C(C)(C)CCCC21C` (centres undefined), the TGI stood at 31.7 µM in assay [1]; 33.1 µM in assay [2]; 31 µM in assay [3]; 37.2 µM in assay [4]; 32.8 µM in assay [5]; 36.5 µM in assay [6]. The TGI was found to be 31.7 µM in assay [7] and 34.1 µM in assay [8].

With `COC(=O)C1CCCN1C(=O)[C@@H]1CCCN1C(=O)[C@H](Cc1c[nH]c2ccccc12)NC(=S)Nc1cc(C(F)(F)F)cc(C(F)(F)F)c1` (some centres undefined), the GI50 in assay [1] is 1.91 µM; in assay [2], 2.48 µM; in assay [3] it was 1.72 µM; in assay [4] it was 1.96 µM; in assay [5] it was 2.88 µM; in assay [6] it was 1.62 µM. In addition, the results for the GI50 in assay [7] and in assay [8] were 1.92 µM and 2.03 µM, respectively. Besides, the TGI is 7.83 µM in assay [1]; 8.92 µM in assay [2]; 3.34 µM in assay [3]; 4.5 µM in assay [4]; 8.03 µM in assay [5]; 3.4 µM in assay [6]. Further, the TGI in assay [7] stood at 4.2 µM; in assay [8], 3.85 µM.

Regarding `Clc1ccc2nnnn2n1`, the GI50 in assay [1] is 18 µM; in assay [2], 4.07 µM; in assay [3], 2.06 µM; in assay [4], 16.9 µM; in assay [5], 2.87 µM; in assay [6], 2.64 µM. Besides, the GI50 is 5.22 µM in assay [7] and 2.6 µM in assay [8]. In addition, the TGI was 62.3 µM in assay [1]; greater than 100 µM in assay [2]; 4.46 µM in assay [3]; 40.6 µM in assay [4]; 9.92 µM in assay [5]; 7.01 µM in assay [6]. For the same molecule, the TGI was greater than 100 µM in assay [7] and 6.66 µM in assay [8].
